14 compounds from patent publication US12180207B2 (ARRAY BIOPHARMA INC., priority 2018, dated 2024) can be followed below.

The structures appear in SMILES notation.

For orientation: IC50 means the point on the concentration scale where inhibition reaches its midpoint.

Test [1] has as its target recombinant human FGFR2 cytoplasmic domain (amino acids 403-822) (Homo sapiens (Human), UniProt P21802). Briefly: FGFR2 enzyme activity assay (LanthaScreen TR-FRET). The class given is biochemical. As to conditions: 15 μM ATP, 20 min incubation at 22° C., average of multiple determinations if made, read-out: FGFR2 Enz FRET IC50. Summed up:
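Substrate phosphorylation was read by TR-FRET using Eu-PY20 antibody (60 min, 22 °C) after a 20 min, 22 °C reaction. The reaction used 15 μM ATP, 100 nM fluorescent poly-GT peptide and His-tagged FGFR2 403-822 ([…]) at pH 7.5 with 2% DMSO.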
In general terms: In TR-FRET formats the signal depends on donor and acceptor labels being close together.

For test [2], the target named is recombinant human FGFR1 catalytic domain (amino acids 308-731) (Homo sapiens (Human), UniProt P11362). As to the kind of experiment: FGFR1 enzyme activity assay (LanthaScreen TR-FRET). It is filed as biochemical. The note with it: 20 min incubation at 22° C., average of multiple determinations if made, read-out: FGFR1 Enz FRET IC50. Summed up:
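His-tagged FGFR1 kinase domain with 100 nM Alexa Fluor 647-poly-GT peptide and ATP in pH 7.5 HEPES/MgCl2 buffer with 2% DMSO, 20 min at 22 °C. Quenched with EDTA plus 2 nM Eu-PY20 antibody and read after 60 min. IC50 comes from a 4-parameter fit of percent of control.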

The target in test [3] is FGFR1 (SEQ ID NO: 1, amino acids 458-765) (Homo sapiens (Human), UniProt P11362). As to the kind of experiment: LC/MS FGFR1 kobs assay (covalent protein modification). The class given is binding. As to conditions: 500 nM FGFR1, 3 μM compound. Summed up: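 Covalent labeling of FGFR1 kinase domain (aa 458-765) tracked over time by intact-protein LC/MS after formic acid quench. kobs derived by fitting DMSO-normalized percent unmodified FGFR1 to an exponential decay model.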
FGFR1 (SEQ ID NO: 1, amino acids 458-765), sequence (P11362 458-765): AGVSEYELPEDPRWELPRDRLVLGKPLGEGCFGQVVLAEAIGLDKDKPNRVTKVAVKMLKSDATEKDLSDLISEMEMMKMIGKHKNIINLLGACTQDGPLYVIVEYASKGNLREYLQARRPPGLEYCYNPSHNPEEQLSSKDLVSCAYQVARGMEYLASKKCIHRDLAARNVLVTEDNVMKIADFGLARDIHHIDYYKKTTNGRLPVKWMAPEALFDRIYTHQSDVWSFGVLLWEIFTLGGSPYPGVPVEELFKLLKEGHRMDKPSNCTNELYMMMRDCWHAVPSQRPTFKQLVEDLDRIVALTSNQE

In test [4] the target is recombinant human FGFR3 (amino acids R397-T806) (Homo sapiens (Human), UniProt P22607). As to the kind of experiment: FGFR3 enzyme activity assay (LanthaScreen TR-FRET). It is filed as biochemical. As to conditions: 25 μM ATP, 10 min incubation at 22° C., average of multiple determinations if made, read-out: FGFR3 Enz FRET IC50. In a few lines: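 GST-HIS6-tagged human FGFR3 (R397-T806) was reacted with 100 nM Alexa Fluor 647-Poly-GT substrate and 25 μM ATP plus compound in HEPES/MgCl2/Triton buffer, pH 7.5, 2% DMSO, for 10 min at 22 °C.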
recombinant human FGFR3 (amino acids R397-T806), sequence (P22607 397-806): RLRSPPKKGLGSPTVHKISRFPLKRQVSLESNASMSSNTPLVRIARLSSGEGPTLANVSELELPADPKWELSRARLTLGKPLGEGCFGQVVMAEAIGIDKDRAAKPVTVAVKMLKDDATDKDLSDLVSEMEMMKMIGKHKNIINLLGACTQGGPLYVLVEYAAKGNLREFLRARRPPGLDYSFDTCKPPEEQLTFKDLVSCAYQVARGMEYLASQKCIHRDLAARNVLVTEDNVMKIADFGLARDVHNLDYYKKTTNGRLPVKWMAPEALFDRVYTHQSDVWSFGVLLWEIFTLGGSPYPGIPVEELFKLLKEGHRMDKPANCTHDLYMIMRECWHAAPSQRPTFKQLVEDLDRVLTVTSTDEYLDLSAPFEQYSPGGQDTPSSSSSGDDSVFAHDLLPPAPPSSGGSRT

Test [5] concerns the target dephosphorylated FGFR1 (SEQ ID NO: 1, amino acids 458 to 765) (Homo sapiens (Human), UniProt P11362). Briefly: FGFR enzyme binding assay (HTRF tracer displacement), FGFR1. The note with it: 5 nM dephosphorylated FGFR1, average of multiple determinations if made. Summed up:
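Kinase and tracer were incubated with compound for 60 minutes at 22° C. Tracer displacement was then measured by HTRF, and results were expressed as POC with 1 μM control inhibitor defining full displacement.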

dephosphorylated FGFR1 (SEQ ID NO: 1, amino acids 458 to 765), sequence (P11362 458-765): as the sequence (P11362 458-765) above
recombinant human FGFR1 catalytic domain (amino acids 308-731), sequence (P11362 other isoform, or with tags, fused parts or gaps): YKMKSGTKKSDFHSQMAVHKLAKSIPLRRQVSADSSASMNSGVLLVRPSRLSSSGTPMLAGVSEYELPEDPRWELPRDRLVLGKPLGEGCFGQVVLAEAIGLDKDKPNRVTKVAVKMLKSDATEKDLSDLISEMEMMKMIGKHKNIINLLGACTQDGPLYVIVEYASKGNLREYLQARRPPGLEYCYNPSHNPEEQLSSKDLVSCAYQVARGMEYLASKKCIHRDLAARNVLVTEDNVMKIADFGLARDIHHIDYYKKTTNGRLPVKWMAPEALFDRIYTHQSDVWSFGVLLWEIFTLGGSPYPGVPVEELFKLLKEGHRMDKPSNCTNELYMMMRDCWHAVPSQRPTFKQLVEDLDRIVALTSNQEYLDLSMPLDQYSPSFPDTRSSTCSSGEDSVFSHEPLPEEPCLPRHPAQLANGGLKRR
recombinant human FGFR2 cytoplasmic domain (amino acids 403-822), sequence (P21802 402-821): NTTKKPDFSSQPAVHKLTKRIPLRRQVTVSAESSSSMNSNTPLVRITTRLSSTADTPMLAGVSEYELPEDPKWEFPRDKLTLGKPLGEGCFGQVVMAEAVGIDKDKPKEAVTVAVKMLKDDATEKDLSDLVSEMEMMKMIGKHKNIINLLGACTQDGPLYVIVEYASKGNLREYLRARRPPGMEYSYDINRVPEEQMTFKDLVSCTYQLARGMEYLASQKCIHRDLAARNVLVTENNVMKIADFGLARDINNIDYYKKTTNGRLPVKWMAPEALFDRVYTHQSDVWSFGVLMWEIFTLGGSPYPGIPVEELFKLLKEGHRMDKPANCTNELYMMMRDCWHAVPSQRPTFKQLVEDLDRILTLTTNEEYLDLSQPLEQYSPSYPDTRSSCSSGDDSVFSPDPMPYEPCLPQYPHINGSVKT

Turning to `C=CC(=O)N1C2CC1CN(C(=O)N1CCC(n3cc(-c4cc(OC)c5c(C#N)cnn5c4)cn3)CC1)C2` [Example 1, 6-(1-(1-(6-acryloyl-3,6-diazabicyclo[3.1.1]heptane-3-carbonyl)piperidin-4-yl)-1H-pyrazol-4-yl)-4-methoxypyrazolo[1,5-a]pyridine-3-carbonitrile], the IC50 in test [1] came to 15 nM; in test [2], 5 nM; in test [4], 5 nM; in test [5] it was 50 nM. For the same compound, the “FGFR1 Enz kobs” value in test [3] is 0.00122 min⁻¹.

Take `C=CC(=O)N1C2COCC1CN(C(=O)N1CCC(n3cc(-c4cc(OC)c5c(C#N)cnn5c4)cn3)CC1)C2` [Example 3, 6-(1-(1-(9-acryloyl-3-oxa-7,9-diazabicyclo[3.3.1]nonane-7-carbonyl)piperidin-4-yl)-1H-pyrazol-4-yl)-4-methoxypyrazolo[1,5-a]pyridine-3-carbonitrile]: the IC50 in test [1] turned out to be 5 nM; in test [2], 8 nM; in test [4], 2 nM; in test [5] it was 44 nM. In test [3], the “FGFR1 Enz kobs” value was 0.00172 min⁻¹.

As for `C=CC(=O)N1CCC(C#N)(C(=O)N2CCC(n3cc(-c4cc(OC)c5c(C#N)cnn5c4)cn3)CC2)CC1` [Example 14, 6-(1-(1-(1-acryloyl-4-cyanopiperidine-4-carbonyl)piperidin-4-yl)-1H-pyrazol-4-yl)-4-methoxypyrazolo[1,5-a]pyridine-3-carbonitrile], the IC50 in test [1] worked out at 3 nM; in test [2], 8 nM; in test [4] it was 3 nM; in test [5], 84 nM. In addition, in test [3], the “FGFR1 Enz kobs” value stood at 0.00069 min⁻¹.

For `C=CC(=O)N1CCC(C(=O)N2CCC(n3cc(-c4cc(OC)c5c(C#N)cnn5c4)cn3)CC2)C(F)(F)C1` (stereo not shown) [Example 15, 6-(1-(1-(1-acryloyl-3,3-difluoropiperidine-4-carbonyl)piperidin-4-yl)-1H-pyrazol-4-yl)-4-methoxypyrazolo[1,5-a]pyridine-3-carbonitrile], the IC50 in test [1] amounted to 2 nM; in test [2], 7 nM; in test [4], 2 nM; in test [5], 32 nM. For the same compound, in test [3], the “FGFR1 Enz kobs” value stood at 0.00168 min⁻¹.

Regarding `C=CC(=O)N1CC2(CCC(C(=O)N3CCC(n4cc(-c5cc(OC)c6c(C#N)cnn6c5)cn4)CC3)CC2)C1` [Example 21, 6-(1-(1-(2-acryloyl-2-azaspiro[3.5]nonane-7-carbonyl)piperidin-4-yl)-1H-pyrazol-4-yl)-4-methoxypyrazolo[1,5-a]pyridine-3-carbonitrile], the half-maximal inhibitory concentration (IC50) in test [1] came to 3 nM; in test [2] it was 10 nM; in test [4], 3 nM; in test [5] it was 57 nM. Besides, in test [3], the “FGFR1 Enz kobs” value came out at 0.00085 min⁻¹.

Consider `C=CC(=O)Nc1cccc(C(=O)N2CCC(n3cc(-c4cc(OC)c5c(C#N)cnn5c4)cn3)CC2)c1` [Example 22, N-(3-(4-(4-(3-cyano-4-methoxypyrazolo[1,5-a]pyridin-6-yl)-1H-pyrazol-1-yl)piperidine-1-carbonyl)phenyl)acrylamide], for which the IC50 in test [1] stood at 5 nM; in test [2], 21 nM; in test [4] it was 4 nM; in test [5], 112 nM. Besides, in test [3], the “FGFR1 Enz kobs” value was 0.00187 min⁻¹.

In the case of `C=CC(=O)Nc1ccc(C(=O)N2CCC[C@@H](n3cc(-c4cc(OC)c5c(C#N)cnn5c4)cn3)C2)cc1` [Example 23, (R)-N-(4-(3-(4-(3-cyano-4-methoxypyrazolo[1,5-a]pyridin-6-yl)-1H-pyrazol-1-yl)piperidine-1-carbonyl)phenyl)acrylamide], the IC50 was 12 nM in test [1], 36 nM in test [2], 16 nM in test [4] and 431 nM in test [5]. Also, the “FGFR1 Enz kobs” value in test [3] stood at 0.00247 min⁻¹.

As for `C=CC(=O)Nc1cccc(C(=O)N2CCC[C@@H](n3cc(-c4cc(OC)c5c(C#N)cnn5c4)cn3)C2)c1` [Example 24, (R)-N-(3-(3-(4-(3-cyano-4-methoxypyrazolo[1,5-a]pyridin-6-yl)-1H-pyrazol-1-yl)piperidine-1-carbonyl)phenyl)acrylamide], the IC50 in test [1] was found to be 23 nM; in test [2] it was 63 nM; in test [4], 31 nM; in test [5], 310 nM. The “FGFR1 Enz kobs” value in test [3] turned out to be 0.0025 min⁻¹.

`C=CC(=O)Nc1ccccc1C(=O)N1CCC[C@@H](n2cc(-c3cc(OC)c4c(C#N)cnn4c3)cn2)C1` [Example 25, (R)-N-(2-(3-(4-(3-cyano-4-methoxypyrazolo[1,5-a]pyridin-6-yl)-1H-pyrazol-1-yl)piperidine-1-carbonyl)phenyl)acrylamide]: the IC50 was 18 nM in test [1], 53 nM in test [2], 12 nM in test [4] and 350 nM in test [5]. Further, the “FGFR1 Enz kobs” value in test [3] is 0.00103 min⁻¹.

As for `C=CC(=O)N1CC[C@H](C(=O)N2CCC(n3cc(-c4cc(OC)c5c(C#N)cnn5c4)cn3)CC2)C1` [Example 28, (S)-6-(1-(1-(1-acryloylpyrrolidine-3-carbonyl)piperidin-4-yl)-1H-pyrazol-4-yl)-4-methoxypyrazolo[1,5-a]pyridine-3-carbonitrile], the IC50 is 5 nM in test [1], 18 nM in test [2], 9 nM in test [4] and 105 nM in test [5]. Besides, the “FGFR1 Enz kobs” value in test [3] came out at 0.00075 min⁻¹.

For the compound `C=CC(=O)N1CC[C@@H](C(=O)N2CCC(n3cc(-c4cc(OC)c5c(C#N)cnn5c4)cn3)CC2)C1` [Example 29, (R)-6-(1-(1-(1-acryloylpyrrolidine-3-carbonyl)piperidin-4-yl)-1H-pyrazol-4-yl)-4-methoxypyrazolo[1,5-a]pyridine-3-carbonitrile], the IC50 in test [1] amounted to 8 nM; in test [2], 24 nM; in test [4] it was 11 nM; in test [5], 251 nM. Besides, the “FGFR1 Enz kobs” value in test [3] amounted to 0.00075 min⁻¹.

Regarding `C=CC(=O)N1CC(C(=O)N2CCC(n3cc(-c4cc(OC)c5c(C#N)cnn5c4)cn3)CC2)C1` [Example 36, 6-(1-(1-(1-acryloylazetidine-3-carbonyl)piperidin-4-yl)-1H-pyrazol-4-yl)-4-methoxypyrazolo[1,5-a]pyridine-3-carbonitrile], the IC50 in test [2] came to 11 nM; in test [4], 4 nM; in test [5] it was 59 nM. In test [3], the “FGFR1 Enz kobs” value came out at 0.00127 min⁻¹.

For the compound `C=CC(=O)Nc1ccc(C(=O)N2CCC(n3cc(-c4cc(OC)c5c(C#N)cnn5c4)cn3)CC2)cc1` [Example 177, N-(4-(4-(4-(3-cyano-4-methoxypyrazolo[1,5-a]pyridin-6-yl)-1H-pyrazol-1-yl)piperidine-1-carbonyl)phenyl)acrylamide], the IC50 came to 4 nM in test [1], 11 nM in test [2] and 8 nM in test [4]. For the same compound, the “FGFR1 Enz kobs” value in test [3] came to 0.00324 min⁻¹.

`C=CS(=O)(=O)Nc1cccc(C(=O)N2CCC(n3cc(-c4cc(OC)c5c(C#N)cnn5c4)cn3)CC2)c1` [Example 188, N-(3-(4-(4-(3-cyano-4-methoxypyrazolo[1,5-a]pyridin-6-yl)-1H-pyrazol-1-yl)piperidine-1-carbonyl)phenyl)eth-enesulfonamide]: the IC50 came to 5 nM in test [1], 11 nM in test [2], 3 nM in test [4] and 14 nM in test [5].
